In the supplement of paper PMC6045584:
± gives the standard deviation of the averaged measurements.

Assays:
SUNITINIB = compound: CCN(CC)CCNC(=O)c1c(C)[nH]c(/C=C2\C(=O)Nc3ccc(F)cc32)c1C [SUNITINIB]; test: surviving fraction relative to DMSO-only wells; higher = less growth inhibition; conditions: exposure time: 5 days
How it was run: (§1)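 In 384-well plates, 250–500 log-phase tumour cells per well were given 24 hours before five days of continuous exposure to inhibitors at 0.5, 1, 5, 10, 50, 100, 500 and 1000 nM. Surviving fraction is luminescence from CellTiter-Glo, normalised to the median of wells containing DMSO alone. Reading took place after 10 minutes at room temperature.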

[1] = compound: O=C(NOCC1CC1)c1ccc(F)c(F)c1Nc1ccc(I)cc1Cl; test: as above; conditions: exposure time: 5 days
How it was run: as §1

Test System	surviving fraction (SUNITINIB; 0.5 nM)	surviving fraction (SUNITINIB; 1 nM)	surviving fraction (SUNITINIB; 10 nM)	surviving fraction (SUNITINIB; 100 nM)	surviving fraction (SUNITINIB; 500 nM)	surviving fraction (SUNITINIB; 1000 nM)	surviving fraction ([1]; 0.5 nM)	surviving fraction ([1]; 1 nM)	surviving fraction ([1]; 5 nM)	surviving fraction ([1]; 10 nM)	surviving fraction ([1]; 50 nM)	surviving fraction ([1]; 100 nM)	surviving fraction ([1]; 500 nM)	surviving fraction ([1]; 1000 nM)	surviving fraction (SUNITINIB; 5 nM)	surviving fraction (SUNITINIB; 50 nM)
CME SYNOVIAL	0.928 ± 0.17	0.551 ± 0.019	0.036 ± 0.0027	0.82 ± 0.032	0.767 ± 0.1	0.0447 ± 0.0074	0.301 ± 0.075	1.11 ± 0.064	1.04 ± 0.15	1.27 ± 0.12	0.584 ± 0.07	1.22 ± 0.17	0.993 ± 0.16	1.02 ± 0.27	–	–
CHLA90 AUTONOMIC GANGLIA	0.885 ± 0.043	0.803 ± 0.062	0.248 ± 0.019	0.776 ± 0.047	0.779 ± 0.015	0.201 ± 0.02	0.469 ± 0.022	0.987 ± 0.003	0.825 ± 0.05	0.894 ± 0.036	0.478 ± 0.044	0.763 ± 0.028	0.662 ± 0.044	0.69 ± 0.015	0.805 ± 0.025	–
ASKA SYNOVIAL	0.864 ± 0.079	0.768 ± 0.059	0.328 ± 0.056	0.659 ± 0.04	0.441 ± 0.034	0.104 ± 0.0093	0.658 ± 0.015	1.08 ± 0.052	1.08 ± 0.049	1.14 ± 0.035	0.847 ± 0.019	1.11 ± 0.073	0.973 ± 0.034	0.903 ± 0.029	0.858 ± 0.028	0.867 ± 0.043
KPD BONE	0.898 ± 0.04	0.875 ± 0.031	–	0.972 ± 0.022	0.73 ± 0.031	0.441 ± 0.046	1.17 ± 0.41	0.967 ± 0.047	1.032 ± 0.007	0.977 ± 0.037	0.986 ± 0.065	0.96 ± 0.032	0.968 ± 0.041	0.922 ± 0.055	0.928 ± 0.042	0.9567 ± 0.007
NY BONE	0.904 ± 0.016	0.855 ± 0.023	0.918 ± 0.04	0.929 ± 0.019	0.696 ± 0.023	0.481 ± 0.036	0.923 ± 0.029	0.9257 ± 0.0055	0.953 ± 0.02	0.975 ± 0.023	0.97 ± 0.026	0.993 ± 0.028	0.93 ± 0.024	0.921 ± 0.037	–	0.937 ± 0.01
MDAMB468 BREAST	0.8 ± 0.046	–	0.927 ± 0.072	1.04 ± 0.084	–	–	0.938 ± 0.079	0.983 ± 0.083	1.02 ± 0.029	1 ± 0.11	0.933 ± 0.046	0.998 ± 0.038	0.885 ± 0.029	0.913 ± 0.0098	–	1.1 ± 0.091
